“Also recorded” adds a separate entry of the source.
Legend:
stroke in Cryab−/− mice = assay: Cerebral ischemia (middle cerebral artery occlusion) in Cryab−/− mice, lesion size by silver stain; type: in vivo, mouse; settings: IP 1 h before stroke, 12 h, 24 h and daily for seven days, vs PBS treated Cryab−/−
Procedure: To test if increased plasma Cryab after stroke was beneficial, Cryab^−/− mice were given intraperitoneal injections of recombinant Cryab protein starting 1 h before stroke onset and continuing at 12 h, 24 h and daily afterwards for seven days in total.
Induction of cerebral ischemia. We used 12 to 14-week-old, male mice weighing 25-30 g. The weights of the animals in all experimental groups were similar. We used filament occlusion model of cerebral ischemia as described. Briefly, mice were anesthetized with 2% isoflurane in a mixture of 20% oxygen and 80% air. After the surgical exposure, the left external and common carotid arteries were permanently ligated. Then, a 7-0 mm, silicon rubber-coated, reusable monofilament (Doccol Inc, 70SPRe2045) was inserted into the left common carotid artery and advanced towards the left internal carotid artery 9-10 mm after the left carotid bifurcation. The core body temperature was checked by a rectal probe and maintained at 37° C. throughout the surgery by a heating pad and lamp. The cerebral blood flow was measured by a laser Doppler flow-meter and at least 80% reduction compared to presurgical baseline values was achieved after the insertion of the filament. The flowmeter probe was placed 2 mm posterior and 5-6 mm lateral to the bregma on the skull. The reperfusion was achieved by withdrawal of the filament 30 min after the insertion. […]

[1] = system: pro-inflammatory cytokines of MOG stimulated splenocytes; assay: Peripheral immune cell activation: cytokine production by MOG stimulated splenocytes of treated MOG immunized mice (ELISA); set-up: species or system mouse; settings: mice treated in vivo; splenocytes from MOG immunized mice
Procedure: Peripheral immune cell activation and cytokine analysis. Spleens and lymph nodes were isolated from mice 9 days after immunization with MOG35-55 and CFA. Spleens were mechanically disrupted to isolate single cell splencytes suspension. Cells were cultured in flat bottomed, 96-well plates in media (RPMI 1640 supplemented with […] L-glutamine, 1 mM sodium pyruvate, 0.1 mM non-essential amino acids, 100 U/mL penicillin, 0.1 mg/mL streptomycin, 0.5 uM 2-mercaptoethanol, and 10% fetal calf serum). Cells were stimulated with MOG35-55 (5 ug/mL, 10 ug/mL, and 20 ug/mL). For all activation assays, splenocytes were pooled from three mice per group and triplicate wells were plated. Supernatants of cells were collected at the time of peak production for each cytokine (48 hrs: IL-2, IL-12p40, IL-6; 72 hrs: TNFα and IFNγ; 96 hrs: IL-17; 120 hrs: IL-10). Cytokines were measured in the supernatants using anti-mouse OPTEIA ELISA kits (BD Pharmingen for IFNγ, IL-10, IL-2, IL-6, and IL-12p40; R&D Systems for IL-17 and TNFα).

stroke in wild-type mice = assay: Cerebral ischemia (30 min middle cerebral artery filament occlusion) in wild-type mice, lesion size; type: in vivo, mouse; settings: vs PBS
Procedure: Because the restoration of plasma Cryab in Cryab^−/− mice decreased the lesion size, we next investigated whether administration of Cryab into wild-type mice would have a similar effect. When Cryab was administered beginning 1 h before stroke onset and then at 12 hrs after, the lesion size at 2 d was not different between PBS and Cryab treated wild-type mice groups (FIG. 14a).
Induction of cerebral ischemia. We used 12 to 14-week-old, male mice weighing 25-30 g. The weights of the animals in all experimental groups were similar. We used filament occlusion model of cerebral ischemia as described. Briefly, mice were anesthetized with 2% isoflurane in a mixture of 20% oxygen and 80% air. After the surgical exposure, the left external and common carotid arteries were permanently ligated. Then, a 7-0 mm, silicon rubber-coated, reusable monofilament (Doccol Inc, 70SPRe2045) was inserted into the left common carotid artery and advanced towards the left internal carotid artery 9-10 mm after the left carotid bifurcation. The core body temperature was checked by a rectal probe and maintained at 37° C. throughout the surgery by a heating pad and lamp. The cerebral blood flow was measured by a laser Doppler flow-meter and at least 80% reduction compared to presurgical baseline values was achieved after the insertion of the filament. The flowmeter probe was placed 2 mm posterior and 5-6 mm lateral to the bregma on the skull. The reperfusion was achieved by withdrawal of the filament 30 min after the insertion. After the closure of the surgical wound and the mice were returned to their cages with free access to water and food.

brain T cells = assay: Brain T cell populations at 7 d after stroke (flow cytometry), wild-type mice; type: in vivo, mouse; settings: vs PBS
Procedure: The T cell populations in brain were analyzed at 7 d after stroke. […] However, when we quantitatively analyzed how many cytokine molecules existed per cell, we found fewer IL-17-PE molecules per CD3^+, CD4^+ and gd-T cells in Cryab-treated mice brains compared to PBS-treated ones (FIG. 15k, l).

HSPB5−/− EAE mice = settings: WT and HSPB5 deficient mice; previously published data; cited from earlier work
[2] = system: splenocytes stimulated with concanavalin A or LPS; assay: Splenocyte cytokine response at 7 d after stroke, wild-type mice; type: in vivo, mouse; settings: vs PBS
Procedure: Effects of Cryab treatment on immune system. The effects of Cryab treatment on the splenocyte cytokine response were assessed at 7 d after stroke in wild-type mice. The total number of splenocytes in PBS and Cryab treated mice was equivalent at 7 d after stroke (data not shown). When stimulated by concanavalin A, splenocytes from Cryab treated mice produced fewer pro-inflammatory IL-2, IL-17, IFN-g, IL-12p40, IL-6 and more anti-inflammatory IL-10 than the splenocytes from PBS treated mice (FIG. 14d-i). When stimulated by LPS, Cryab-treated mice splenocytes produced fewer pro-inflammatory IL-6 and TNF than the splenocytes from PBS-treated mice (FIG. 14j, k).

EAE mice = assay: EAE in 129Sv WT mice immunized with MOG35-55/CFA, clinical scoring; type: in vivo, mouse; settings: vs PBS
Procedure: To investigate if the therapeutic efficacy of HSPB5 is a common feature of the whole family of small heat shock proteins, we expressed recombinant HSPB1, HSPB4, and HSPB5. We then treated EAE mice every other day starting at the peak of disease, when clinical paralysis is apparent, with an intraperitoneal (IP) administration of 10 μg of either HSPB1, HSPB4, HSPB5, or PBS as the vehicle control. […] Treating mice in vivo with HSPB1, HSPB4, or HSPB5 led to a reduction in the production of pro-inflammatory cytokines by MOG stimulated splenocytes taken from MOG immunized mice (FIG. 1c). Improvement of the clinical score was dependent on continued dosing of the sHSP. After dosing was stopped, symptoms returned, and paralysis worsened after 96 hours.
Therapeutic Peptides from HSPB5 in EAE. […] We made a series of overlapping, 15-mer peptide fragments of HSPB5 and treated mice at the peak of disease with 10 μg of each peptide every other day, using HSPB5 as a positive control and PBS as a negative control.
EAE induction and scoring. Mice were immunized subcutaneously with 100 μL of myelin oligodendrocyte glycoprotein (MOG) peptide 35-55 (2 mg/mL) and Complete Freund's adjuvant (CFA) (4 mg/mL) on Day 0. […] Mice were randomized at the peak of disease into the treatment groups where they received 10 ug/200 μL of sHSP, 1 μg/200 uL of sHSP peptide, or 200 μL of PBS (vehicle) every other day. Mice were scored every day on a clinical scoring system: 0, healthy mouse; 1, limp tail; 2, weak hindlimbs; 3, complete hindlimb paralysis; 4, weak forelimbs and paralyzed hindlimbs; 5, dead.

αB-crystallin [HSPB5]
lesion size at 7 d after stroke (stroke in Cryab−/− mice): significantly decreased; also recorded: confers neuroprotection | production of pro-inflammatory cytokines by MOG stimulated splenocytes [1]: reduction | blood pressure, pulse rate, plasma glucose and lactate levels and arterial blood gas analysis (stroke in wild-type mice; before, during or after cerebral ischemia): no differences | lesion size at 2 d after stroke (TTC staining) (stroke in wild-type mice; wild-type mice, given 1 h before stroke onset and 12 hrs after): not different | lesion size at 7 d after stroke (silver stain) (stroke in wild-type mice; wild-type mice, given 1 h before, 12 h, 24 h after and daily for seven days): significantly reduced | lesion size at 7 d after stroke (silver stain) (stroke in wild-type mice; wild-type mice, initial treatment 12 h after stroke onset, listed as Cryab): reduced stroke pathology; also recorded: conferred neuroprotection | IL-17-PE molecules per CD3+, CD4+ and gd-T cells (brain T cells; brain): fewer | number of IFN-g-PE molecules per CD3+ or CD4+ cells (brain T cells; brain): no differences | percentages of IFN-g+ cells among CD3+ or CD4+ cells (brain T cells; brain): no differences | percentages of IL-17+ cells among CD3+, CD4+ or gd-T cells (brain T cells; brain): no differences | total number of the brain CD3+, CD4+, CD8+ and gd-T cells (brain T cells): did not change | treatment of EAE by full-length protein (HSPB5−/− EAE mice): able to treat not only WT mice, but also HSPB5 deficient mice | IL-6 production by splenocytes ([2]; LPS stimulation): fewer | TNF production by splenocytes ([2]; LPS stimulation): fewer | IFN-g production by splenocytes ([2]; concanavalin A stimulation): fewer | IL-2 production by splenocytes ([2]; concanavalin A stimulation): fewer | IL-6 production by splenocytes ([2]; concanavalin A stimulation): fewer | IL-10 production by splenocytes ([2]; concanavalin A stimulation): more | IL-12p40 production by splenocytes ([2]; concanavalin A stimulation): fewer | IL-17 production by splenocytes ([2]; concanavalin A stimulation): fewer | total number of splenocytes [2]: equivalent | EAE clinical scores over the course of the whole experiment (area under the curve) (EAE mice; 10 μg sHSP protein IP every other day from peak of disease): significantly improved | clinical paralysis / EAE clinical scores (EAE mice; 10 μg sHSP protein IP every other day starting at the peak of disease): significantly ameliorated clinical paralysis; also recorded: therapeutic
